{
  "source": "paper PMC5267425",
  "about": "“Identification of small molecule modulators of HIV-1 Tat and Rev protein accumulation” (Retrovirology, 2017)",
  "system": "alternative splicing of host transcripts in HeLa rtTA HIV∆Mls cells",
  "test": "RT-PCR of host alternative splicing events (PSI), capillary electrophoresis",
  "assay_type": "cell-based",
  "design": "PSI ZNF827_1 / PSI RAN_1 / PSI SEC24B_1 / PSI SMN2_1 / PSI TRIM37_1 / PSI RPS24_1 / PSI PDCL_1 / PSI SMN2_2 / PSI SETD5_1 / PSI RAI14_1 / PSI TPM1_1 / PSI SPAG9_1 / PSI POLDIP3_1 / PSI SRPK2_1 / PSI POMT1_1: concentration or dose not given beside the values",
  "conditions": "for DPSI TPM1_1: P Value 0.330",
  "procedure": "To assess the effect of compounds on expression/alternative splicing of cellular RNA, two approaches were used. For both, total RNA was prepared from DMSO or compound-treated cells. In the first assay, samples were assayed by medium throughput RT-PCR to determine the inclusion levels of alternatively spliced exons and splice sites located in 73 selected events. 73 primer sets containing a fluorescently (5-FAM) labeled primer for each, were used in RT-PCR. PCR products generated were denatured in formamide and quantified using ABI Prism capillary sequencer (Life Technologies). The fragment analysis was performed on the PeakScanner software (Life Technologies) in batch mode and automated using custom scripts written in Python. The inclusion level of each exon was calculated as the amount of transcripts carrying the alternative exon relative to the total amount of all transcripts detected in the PCR reaction and results are summarized for compound-treatment in comparison to DMSO treatment. In the second assay, extracted RNA was processed using the Illumina TruSeq RNA Sample Preparation Kit (Illumina) according to the manufacturer’s instructions. The cDNA library generated was validated (passed quality control on a Bioanalyzer 1000 DNA chip (Agilent)), normalized and pooled for cluster generation. cDNA libraries were sequenced on the Illumina HiSeq 2500 (paired-end, 125 bp) with version 4 chemistry following manufacturer’s protocols. The full human genome and transcriptomic sequences were downloaded from the UCSC Genome Browser (genome.ucsc.edu) database and Ensembl (www.ensembl.org), respectively, as described by Irimia et al.. Exon annotations and genomic coordinates for alternative splicing (AS) analysis were derived from tables downloaded from the UCSC Genome Browser database. To determine gene expression (GE) or alternative splicing (AS) changes in an unbiased way, the effective number of unique mappable positions in each transcript (i.e. the effective length) was determined by aligning sequences with unique transcriptomic alignment to the human genome using Bowtie. Reads with one unique genomic alignment were then aligned against the canonical transcriptome and, for each transcript, the number of reads with one unique transcriptomic alignment were counted. The expression level of genes was quantified as corrected ‘reads per kilobase of exon model per million mapped reads’ (cRPKM), a widely used metric to estimate gene expression levels. The expression cutoff was 0.5 cRPKM, corresponding to the transcript of the gene being present if there were ≥10 reads that mapped uniquely to a single genomic locus. Approximately 19,847 Ensembl annotated protein-coding genes were compared to create a gene list of differentially expressed genes. Genes were considered differentially expressed if fold changes in cRPKM was ≥2 in compound-treated versus DMSO-treated samples.",
  "key": {"[1]": {"conditions": "of 70 AS events, 5193892 vs DMSO, HeLa rtTA-HIV-DMls cells"}},
  "note": "Values joined by “and” are separate entries in the source; they are usually repeats but may differ in a detail not shown here. Equal values may be shown once.",
  "data": [
    {"smiles": "COc1ccc(C=NNC(=O)c2ccccc2O)cc1O", "note": "[Compound 892, 2-hydroxy-N′-(3-hydroxy-4-methoxybenzylidene)benzohydrazide]", "values": [
      {"measurement": "PSI NUMB_2", "setting": "chr14:72815742-72815885, HeLa rtTA-HIV-DMls cells, replicates 25, 26, 27", "result": 26.00},
      {"measurement": "DPSI NUMB_2", "setting": "chr14:72815742-72815885, mean PSI 5193892 minus DMSO, n=3, P Value 0.004", "result": 8.67, "unit": "%"},
      {"measurement": "PSI NUMB_2", "setting": "chr14:72820542-72820835, HeLa rtTA-HIV-DMls cells, replicates 25, 26, 27", "result": "82.00 and 96.00 and 95.00"},
      {"measurement": "DPSI NUMB_2", "setting": "chr14:72820542-72820835, mean PSI 5193892 minus DMSO, n=3, P Value 0.525", "result": 4.67, "unit": "%"},
      {"measurement": "PSI MARK3_1", "setting": "chr14:103034592-103034618, HeLa rtTA-HIV-DMls cells, replicates 25, 26, 27", "result": "20.00 and 13.00 and 16.00"},
      {"measurement": "DPSI MARK3_1", "setting": "chr14:103034592-103034618, mean PSI 5193892 minus DMSO, n=3, P Value 0.734", "result": 1.00, "unit": "%"},
      {"measurement": "PSI MARK3_1", "setting": "chr14:103036246-103036290, HeLa rtTA-HIV-DMls cells, replicates 25, 26, 27", "result": "11.00 (2×) and 9.00"},
      {"measurement": "PSI TPM1_1", "setting": "chr15:61140450-61140525, HeLa rtTA-HIV-DMls cells, replicates 25, 26, 27", "result": "84.00 and 73.00 and 67.00"},
      {"measurement": "DPSI TPM1_1", "setting": "chr15:61140450-61140525, mean PSI 5193892 minus DMSO, n=3", "result": -6.67, "unit": "%"},
      {"measurement": "PSI TPM1_1", "setting": "chr15:61140965-61141040, HeLa rtTA-HIV-DMls cells, replicates 25, 26, 27", "result": "16.00 and 27.00 and 33.00"},
      {"measurement": "DPSI TPM1_1", "setting": "chr15:61140965-61141040, mean PSI 5193892 minus DMSO, n=3", "result": 6.67, "unit": "%"},
      {"measurement": "PSI CA12_1", "setting": "chr15:61406400-61406485, HeLa rtTA-HIV-DMls cells, replicates 25, 26, 27", "result": "96.00 and 100.00 and 95.00"},
      {"measurement": "DPSI CA12_1", "setting": "chr15:61406400-61406485, mean PSI 5193892 minus DMSO, n=3, P Value 0.851", "result": 0.33, "unit": "%"},
      {"measurement": "PSI CA12_1", "setting": "chr15:61407349-61407382, HeLa rtTA-HIV-DMls cells, replicates 25, 26, 27", "result": "15.00 and 7.00 and 4.00"},
      {"measurement": "PSI MRIP_1", "setting": "chr17:17024646-17024708, HeLa rtTA-HIV-DMls cells, replicates 25, 26, 27", "result": "32.00 and 31.00 (2×)"},
      {"measurement": "DPSI MRIP_1", "setting": "chr17:17024646-17024708, mean PSI 5193892 minus DMSO, n=3, P Value 0.101", "result": 1.00, "unit": "%"},
      {"measurement": "PSI ATP6V0A1_1", "setting": "chr17:37919833-37920004, HeLa rtTA-HIV-DMls cells, replicates 25, 26, 27", "result": "81.00 and 86.00 and 77.00"},
      {"measurement": "DPSI ATP6V0A1_1", "setting": "chr17:37919833-37920004, mean PSI 5193892 minus DMSO, n=3, P Value 0.331", "result": 3.33, "unit": "%"},
      {"measurement": "PSI SPAG9_1", "setting": "chr17:46408223-46408261, HeLa rtTA-HIV-DMls cells, replicates 25, 26, 27", "result": "25.00 and 17.00 and 16.00"},
      {"measurement": "PSI TRIM37_1", "setting": "chr17:54433741-54433857, HeLa rtTA-HIV-DMls cells, replicates 25, 26, 27", "result": "69.00 and 71.00 and 68.00"},
      {"measurement": "DPSI TRIM37_1", "setting": "chr17:54433741-54433857, mean PSI 5193892 minus DMSO, n=3, P Value 0.063", "result": -4.33, "unit": "%"},
      {"measurement": "PSI FAM104A_1", "setting": "chr17:68720412-68720474, HeLa rtTA-HIV-DMls cells, replicates 25, 26, 27", "result": "15.00 and 20.00 and 18.00"},
      {"measurement": "DPSI FAM104A_1", "setting": "chr17:68720412-68720474, mean PSI 5193892 minus DMSO, n=3, P Value 0.523", "result": -2.33, "unit": "%"},
      {"measurement": "PSI EXOC7_1", "setting": "chr17:71598005-71598035, HeLa rtTA-HIV-DMls cells, replicates 25, 26, 27", "result": "35.00 and 23.00 and 25.00"},
      {"measurement": "DPSI EXOC7_1", "setting": "chr17:71598005-71598035, mean PSI 5193892 minus DMSO, n=3, P Value 0.709", "result": 2.67, "unit": "%"},
      {"measurement": "PSI EXOC7_1", "setting": "chr17:71598819-71598911, HeLa rtTA-HIV-DMls cells, replicates 25, 26, 27", "result": 27.00},
      {"measurement": "DPSI EXOC7_1", "setting": "chr17:71598819-71598911, mean PSI 5193892 minus DMSO, n=3, P Value 0.003", "result": 5.67, "unit": "%"},
      {"measurement": "PSI MBD1_1", "setting": "chr18:46054554-46054721, HeLa rtTA-HIV-DMls cells, replicates 25, 26, 27", "result": "28.00 and 15.00 and 9.00"},
      {"measurement": "PSI APP_1", "setting": "chr21:26291546-26291602, HeLa rtTA-HIV-DMls cells, replicates 25, 26, 27", "result": "30.00 and 32.00 and 34.00"},
      {"measurement": "DPSI APP_1", "setting": "chr21:26291546-26291602, mean PSI 5193892 minus DMSO, n=3, P Value 0.279", "result": 1.67, "unit": "%"},
      {"measurement": "PSI APP_1", "setting": "chr21:26294201-26294368, HeLa rtTA-HIV-DMls cells, replicates 25, 26, 27", "result": "71.00 and 77.00 and 81.00"},
      {"measurement": "PSI POLDIP3_1", "setting": "chr22:41327919-41328006, HeLa rtTA-HIV-DMls cells, replicates 25, 26, 27", "result": "68.00 and 67.00 and 64.00"},
      {"measurement": "DPSI POLDIP3_1", "setting": "chr22:41327919-41328006, mean PSI 5193892 minus DMSO, n=3, P Value 0.421", "result": 2.33, "unit": "%"},
      {"measurement": "AS events with DPSI ≤ -10%", "setting": "[1]", "result": 7},
      {"measurement": "AS events with DPSI ≥ 10%", "setting": "[1]", "result": 2},
      {"measurement": "AS events with P ≤ 0.05", "setting": "[1]", "result": 18}
    ]}
  ]
}
